Experimental data as given in article PMC10125213 (Journal of Molecular Biology, 2023).
Like-named read-outs stand apart in the source and are kept apart here.

How the values were obtained:
WT S protein = WT S protein (Severe acute respiratory syndrome coronavirus 2, UniProt P0DTC2); experiment: biochemical; format: binding
WT RBD = WT RBD (Severe acute respiratory syndrome coronavirus 2, UniProt P0DTC2); format: binding

**Q.** For `N[C@@H](CCC(=O)N[C@@H](CS)C(=O)NCC(=O)O)C(=O)O` [GSH, reduced glutathione], which “effects on WT S protein” value (WT S protein) is on record?
**A.** The value was “did not exhibit any effects”.

**Q.** With `O=C(O)CCP(CCC(=O)O)CCC(=O)O` [TCEP, tris-(2-carboxyethyl)phosphine] as the compound, how does the “effect on WT RBD” value (WT RBD) read?
**A.** The value was “marginal effect”.

**Q.** How did the IC50 (WT S protein; IC50, 37 °C 60 min) turn out when `NCCCNCCS` [WR1065] was run?
**A.** The IC50 was 1 to 10 mM.

**Q.** For `CC(=O)N[C@@H](CS)C(=O)O` [NAC, N-acetylcysteine], which “effects on WT S protein” value (WT S protein; 37 °C 60 min) is on record?
**A.** Its value is “did not exhibit any effects”.
